This is an account of results in patent US7880007B2, “Bicyclic substituted phenyl piperidine modulators of muscarinic receptors” (Vertex Pharmaceuticals Incorporated, priority 2004, dated 2011).

As a reminder, the Emax is the size of the effect at its maximum, as opposed to the concentration needed.

Holding throughout (assay type): cell-based
One assay addresses T1, M3 muscarinic receptor (Homo sapiens, UniProt P20309).
T1 construct: expressed in transfected cells; host or cells: CHO (M3-CHO)
Put plainly: Functional mobilization of intracellular calcium (FLIPR), M3-CHO cells. The following applies: for Emax: 100% efficacy = maximum response obtained with the Carbachol control; for M3 Activity: M3-CHO cells, calcium mobilization (FLIPR). How it is done:
Functional Mobilization of Intracellular Calcium to Determine Muscarinic Receptor Activity:
CHO cells expressing muscarinic receptors (M1 to M5) are grown as monolayers in tissue culture flasks at 37° C. in a humidified atmosphere containing 5% CO2 and passaged every 3-5 days. The growth media is Dulbecco's modified eagles medium (DMEM, Gibco Cat #12430-054), containing 25 mM Hepes and supplemented with Fetal Bovine Serum (Hyclone, cat #SH30071.03), 0.1 mM of MEM non-essential amino acids (GIBCO, Cat #11140-050), 1 mM MEM Sodium Pyruvate (GIBCO Cat #11360-070) and 100 units/ml of Penicillin G and 100 μg/ml of Streptomycin (GIBCO Cat #15140-122). The recombinant muscarinic receptor cell lines are grown under antibiotic pressure with media containing 25 μg/ml zeocin and 500 μg/ml G418 (M1-CHO), 4 μg/ml puromycin, 50 μg/ml zeocin and 2.5 μg/ml blasticidin (M2 and M4-CHO) or 50 μg/ml zeocin and 4 μg/ml puromycin (M3 and M5-CHO).
Cells are harvested at 80-90% confluence using Versene (GIBCO Cat #15040-066), collected by centrifugation and seeded 18-24 hrs prior to running the calcium assay at a density of 5,000-10,000 cells/well in […], clear-bottomed 384-well plates (BD Biocoat, poly-D-lysine, Cat #356663). The day of the experiment, the cells are washed with a plate washer (Bioteck Instruments, ELX 405) using bath 1 buffer (140-mM NaCl, 4.5-mM KCl, 2-mM CaCl2, 1-mM MgCl2, 10-mM Hepes-Na, 10-mM Glucose, pH 7.4, with NaOH) containing 1 mM Probenecid. Next, the calcium dye Fluo-3 (25 μl/well of Fluo-3 AM at 4 μM, Molecular Probes F-1241, in Bath 1 buffer containing 1 mM Probenecid) is added to the 25 μl of Bath 1 remaining in each well after the plate wash and the dye is loaded at 37° C. in the tissue culture incubator for 60-90 min. The fluorescent dye is removed using the plate washer with Bath 1 containing 1 mM Probenecid, leaving 25 μl/well of this solution after the wash. Alternatively, cells can be loaded with the calcium indicator from Molecular Devices (Calcium 3 Assay Reagents, Cat #R7181) adding 5 μl of a 5× solution dye in Bath 1 containing 1 mM Probenecid (10 ml per dye flask cat #R7182 to generate a solution 20×) to 20 μl of the same buffer. After loading for 60 min, the experiment can be run without having to remove the dye.
Compounds are prepared at a 2× fold concentration in a 96-well plate (round bottom, Costar Corning cat #3656), by reconstituting the pre-spotted compounds in bath 1 containing 1 mM probenecid. The final concentration DMSO is 0.5%, and the amount of DMSO is normalized across the assay plate. To determine an agonist action of the compounds on muscarinic receptors, the reconstituted compounds are added (25 μl compound/well) to the cell assay plate (containing 25 μl/well) using the multi-channel robotic system of the FLIPR 3 Instrument (Molecular Devices, Sunnyvale, Calif.). To determine a functional inhibitory action of the compounds on muscarinic receptors, the reconstituted compounds are added (25 μl compound/well) to the assay plate and pre-incubated for 15 min prior to adding 25 μl of Carbachol at 3× the EC80 for each muscarinic subtype. Alternatively, the compounds can be co-applied simultaneously with the agonist. In both assay modes, the fluorescence is recorded for 60 sec (excitation wavelength is […] and emission wavelength 540 nm) using the FLIPR 3 instrument.
The potency, efficacy and selectivity of the muscarinic compounds were evaluated by screening the compound activity across the whole family (M1 to M5 cells). Compounds were also screened for activity on other proteins such as other GPCRs and ion channels to determine selectivity on M4 receptors.
Examples of activities and efficacies of the muscarinic compounds of formulae (I, Ia, Ib, and II) on modulating M1, M2, M3 and M4 receptors are shown below in Table 3. […]
For orientation: A change in cytosolic calcium serves as a functional read-out for many receptors and channels.

The target of the next assay is T2, M1 muscarinic receptor (Homo sapiens, UniProt P11229).
T2 construct: expressed in transfected cells; host or cells: CHO (M1-CHO)
T2 sequence (P11229 1-460): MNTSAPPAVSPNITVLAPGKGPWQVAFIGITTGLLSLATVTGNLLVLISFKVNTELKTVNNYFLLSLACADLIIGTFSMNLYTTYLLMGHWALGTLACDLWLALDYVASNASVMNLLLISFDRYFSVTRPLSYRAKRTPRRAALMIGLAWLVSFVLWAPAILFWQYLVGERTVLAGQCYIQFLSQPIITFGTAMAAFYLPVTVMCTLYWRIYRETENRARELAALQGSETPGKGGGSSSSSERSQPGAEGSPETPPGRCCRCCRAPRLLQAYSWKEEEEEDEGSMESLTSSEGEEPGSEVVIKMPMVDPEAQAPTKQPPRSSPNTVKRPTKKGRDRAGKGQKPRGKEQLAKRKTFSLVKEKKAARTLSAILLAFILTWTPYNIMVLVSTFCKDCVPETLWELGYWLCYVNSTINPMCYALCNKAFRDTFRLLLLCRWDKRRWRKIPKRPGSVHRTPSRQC
Put plainly: Functional mobilization of intracellular calcium (FLIPR), M1-CHO cells. As to conditions: for Emax: 100% efficacy = maximum response obtained with the Carbachol control; for M1 Activity: M1-CHO cells, calcium mobilization (FLIPR). The gist of the method: (§1)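 FLIPR fluorescence (ex 488, em 540 nm) recorded 60 sec after compound addition to dye-loaded CHO cells. Agonist mode: compound alone. Antagonist mode: 15 min compound pre-incubation, then carbachol at EC80, or co-application. Efficacy expressed as % of maximal carbachol response.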

A further assay concerns the target T3, M4 muscarinic receptor (Homo sapiens, UniProt P08173).
T3 construct: expressed in transfected cells; host or cells: CHO (M4-CHO)
T3 sequence (P08173 1-479): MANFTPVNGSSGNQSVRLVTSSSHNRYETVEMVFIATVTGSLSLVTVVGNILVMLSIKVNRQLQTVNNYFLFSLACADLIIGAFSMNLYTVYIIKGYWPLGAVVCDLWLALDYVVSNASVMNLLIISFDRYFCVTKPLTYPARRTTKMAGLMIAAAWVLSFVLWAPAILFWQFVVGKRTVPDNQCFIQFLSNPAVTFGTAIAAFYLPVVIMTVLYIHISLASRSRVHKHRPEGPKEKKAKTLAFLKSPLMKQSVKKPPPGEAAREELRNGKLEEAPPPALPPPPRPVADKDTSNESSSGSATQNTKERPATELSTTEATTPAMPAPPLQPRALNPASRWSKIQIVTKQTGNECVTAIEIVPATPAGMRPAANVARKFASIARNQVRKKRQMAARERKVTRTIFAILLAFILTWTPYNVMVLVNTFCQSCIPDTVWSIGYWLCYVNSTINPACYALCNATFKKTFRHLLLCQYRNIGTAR
Nature of the assay: Functional mobilization of intracellular calcium (FLIPR), M4-CHO cells. As to conditions: for Emax: 100% efficacy = maximum response obtained with the Carbachol control; for M4 Activity: M4-CHO cells, calcium mobilization (FLIPR). The gist of the method: as §1

The next assay concerns the target T4, M2 muscarinic receptor (Homo sapiens, UniProt P08172).
T4 construct: expressed in transfected cells; host or cells: CHO (M2-CHO)
T4 sequence (P08172 1-466): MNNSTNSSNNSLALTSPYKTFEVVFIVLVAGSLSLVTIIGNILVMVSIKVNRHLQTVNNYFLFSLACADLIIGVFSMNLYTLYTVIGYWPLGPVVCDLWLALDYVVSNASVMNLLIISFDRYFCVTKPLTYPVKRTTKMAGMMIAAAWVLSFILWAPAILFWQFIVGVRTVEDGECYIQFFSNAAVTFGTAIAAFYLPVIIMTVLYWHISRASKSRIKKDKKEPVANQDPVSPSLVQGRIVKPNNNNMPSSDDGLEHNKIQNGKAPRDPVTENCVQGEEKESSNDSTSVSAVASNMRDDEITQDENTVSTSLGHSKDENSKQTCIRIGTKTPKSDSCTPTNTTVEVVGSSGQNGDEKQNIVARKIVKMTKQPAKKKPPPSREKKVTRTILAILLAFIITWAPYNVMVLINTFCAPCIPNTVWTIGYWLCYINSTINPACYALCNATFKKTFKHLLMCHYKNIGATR
Put plainly: Functional mobilization of intracellular calcium (FLIPR), M2-CHO cells. As to conditions: for Emax: 100% efficacy = maximum response obtained with the Carbachol control; for M2 Activity: M2-CHO cells, calcium mobilization (FLIPR). The gist of the method: as §1

T1 sequence (P20309 whole entry): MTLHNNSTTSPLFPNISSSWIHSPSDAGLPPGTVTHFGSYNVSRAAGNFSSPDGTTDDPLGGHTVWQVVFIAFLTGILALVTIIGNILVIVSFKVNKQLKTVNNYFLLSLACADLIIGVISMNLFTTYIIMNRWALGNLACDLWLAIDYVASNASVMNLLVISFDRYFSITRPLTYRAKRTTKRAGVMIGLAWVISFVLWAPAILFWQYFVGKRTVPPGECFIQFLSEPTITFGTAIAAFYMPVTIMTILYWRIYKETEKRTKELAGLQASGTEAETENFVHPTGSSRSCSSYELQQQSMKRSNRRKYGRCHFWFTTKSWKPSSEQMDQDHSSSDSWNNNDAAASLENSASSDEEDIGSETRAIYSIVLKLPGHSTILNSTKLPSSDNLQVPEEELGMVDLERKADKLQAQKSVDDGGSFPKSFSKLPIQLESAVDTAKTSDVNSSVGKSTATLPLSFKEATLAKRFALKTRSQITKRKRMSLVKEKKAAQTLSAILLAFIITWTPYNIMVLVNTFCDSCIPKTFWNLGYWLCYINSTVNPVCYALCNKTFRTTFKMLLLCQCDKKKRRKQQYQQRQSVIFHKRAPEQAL

As to `COc1ccc(Cl)cc1C1CCN(C2CCCCC2)CC1` [Compound 9], at M3 muscarinic receptor, the maximal response (Emax) was less than 25% and the “M3 Activity” value is listed as “+ (activity was measured to be greater than 5.0 μM)”. Further, on M1 muscarinic receptor, the Emax lay within 25 to 100% and the “M1 Activity” value is listed as “+++ (activity was measured to be less than 1.0 μM)”. Moreover, at M4 muscarinic receptor, the Emax was 25 to 100% and the “M4 Activity” value is “+++ (activity was measured to be less than 1.0 μM)”. In addition, at M2 muscarinic receptor, the Emax lay within 25 to 100% and the “M2 Activity” value is given as “+++ (activity was measured to be less than 1.0 μM)”.
Regarding `CNC(=O)c1ccc(-c2ccc(OC)c(C3CCN(C4CCOCC4)CC3)c2)cc1Cl` [Compound 11], on M3 muscarinic receptor, the Emax was less than 25% and the “M3 Activity” value was “+ (activity was measured to be greater than 5.0 μM)”. At M1 muscarinic receptor, the maximum response (Emax) is less than 25% and the “M1 Activity” value was “+ (activity was measured to be greater than 5.0 μM)”. In addition, on M4 muscarinic receptor, the Emax is 25 to 100% and the “M4 Activity” value is given as “++ (activity was measured to be from 1.0 μM to 5.0 μM)”. Also, on M2 muscarinic receptor, the maximum response (Emax) was less than 25% and the “M2 Activity” value is “+ (activity was measured to be greater than 5.0 μM)”.
For `O=C(COc1ccccc1C1CCN([C@H]2C[C@H]3CC[C@H]2C3)CC1)c1ccc(F)cc1` [Compound 12], on M3 muscarinic receptor, the Emax is less than 25% and the “M3 Activity” value is “+ (activity was measured to be greater than 5.0 μM)”. Besides, on M1 muscarinic receptor, the Emax was less than 25% and the “M1 Activity” value is recorded as “+ (activity was measured to be greater than 5.0 μM)”. Further, at M4 muscarinic receptor, the Emax was 25 to 100% and the “M4 Activity” value is listed as “++ (activity was measured to be from 1.0 μM to 5.0 μM)”. Further, on M2 muscarinic receptor, the Emax was in the range of 25 to 100% and the “M2 Activity” value is listed as “+ (activity was measured to be greater than 5.0 μM)”.
As for `COc1ccccc1-c1ccc(OC)c(C2CCN([C@H]3C[C@H]4CC[C@H]3C4)CC2)c1` [Compound 13], on M3 muscarinic receptor, the Emax was less than 25% and the “M3 Activity” value is recorded as “+ (activity was measured to be greater than 5.0 μM)”. Also, at M1 muscarinic receptor, the Emax is less than 25% and the “M1 Activity” value is “+ (activity was measured to be greater than 5.0 μM)”. On M4 muscarinic receptor, the Emax is less than 25% and the “M4 Activity” value was “+ (activity was measured to be greater than 5.0 μM)”. For the same molecule, at M2 muscarinic receptor, the Emax was less than 25% and the “M2 Activity” value was “+ (activity was measured to be greater than 5.0 μM)”.
`CCOC(=O)N1CCC(CN2CCC(c3cc(Cl)ccc3OC)CC2)CC1` [Compound 14]: at M3 muscarinic receptor, the Emax is less than 25% and the “M3 Activity” value is recorded as “+ (activity was measured to be greater than 5.0 μM)”. Moreover, at M1 muscarinic receptor, the Emax fell in the range of 25 to 100% and the “M1 Activity” value was “+++ (activity was measured to be less than 1.0 μM)”. For the same molecule, on M4 muscarinic receptor, the Emax is 25 to 100% and the “M4 Activity” value is reported as “+++ (activity was measured to be less than 1.0 μM)”. At M2 muscarinic receptor, the Emax is 25 to 100% and the “M2 Activity” value is reported as “+++ (activity was measured to be less than 1.0 μM)”.
For `COc1ccccc1C1CCN(C2CCCC2)CC1` [Compound 15], at M3 muscarinic receptor, the maximum response (Emax) is less than 25% and the “M3 Activity” value is reported as “+ (activity was measured to be greater than 5.0 μM)”. Moreover, at M1 muscarinic receptor, the Emax was less than 25% and the “M1 Activity” value is reported as “+ (activity was measured to be greater than 5.0 μM)”. Also, on M4 muscarinic receptor, the Emax lay within 25 to 100% and the “M4 Activity” value is “+++ (activity was measured to be less than 1.0 μM)”. Besides, on M2 muscarinic receptor, the Emax is less than 25% and the “M2 Activity” value is given as “+ (activity was measured to be greater than 5.0 μM)”.
For `O=C(COc1ccccc1C1CCN([C@H]2C[C@H]3CC[C@H]2C3)CC1)c1cccc(Cl)c1` [Compound 16], on M3 muscarinic receptor, the Emax was less than 25% and the “M3 Activity” value is on record as “+ (activity was measured to be greater than 5.0 μM)”. Moreover, at M1 muscarinic receptor, the Emax is less than 25% and the “M1 Activity” value is on record as “+ (activity was measured to be greater than 5.0 μM)”. Also, at M4 muscarinic receptor, the maximum response (Emax) fell in the range of 25 to 100% and the “M4 Activity” value was “++ (activity was measured to be from 1.0 μM to 5.0 μM)”. Also, at M2 muscarinic receptor, the Emax is less than 25% and the “M2 Activity” value is given as “+ (activity was measured to be greater than 5.0 μM)”.
